Blank lines part the entries; values can stand above or below the compound they belong to.
How the values were obtained:
[1] = tested on: HCT-116; test: Cytotoxicity against human HCT-116 cells incubated for 72 hrs by MTT assay; type: functional, cell-based; settings: HCT-116, 72 h
[2] = tested on: A549; test: Cytotoxicity against human A549 cells incubated for 72 hrs by MTT assay; type: functional, cell-based; settings: A549, 72 h
[3] = tested on: MDA-MB-435; test: Cytotoxicity against human MDA-MB-435 cells incubated for 72 hrs by MTT assay; type: functional, cell-based; settings: MDA-MB-435, 72 h
[4] = tested on: A549; test: Antiproliferative activity against human A549 cells incubated for 48 hrs by MTT assay; type: functional, cell-based; settings: A549, 48 h
[5] = tested on: MDA-MB-231; test: Antiproliferative activity against human MDA-MB-231 cells incubated for 48 hrs by MTT assay; type: functional, cell-based; settings: MDA-MB-231, 48 h
[6] = tested on: HepG2; test: Antiproliferative activity against human HepG2 cells incubated for 48 hrs by MTT assay; type: functional, cell-based; settings: HepG2, 48 h
[7] = tested on: PC-3; test: Cytotoxicity against human PC-3 cells assessed as inhibition of cell growth incubated for 72 hrs by sulforhodamine B assay; type: functional, cell-based; settings: PC-3, 72 h
[8] = tested on: MCF7; test: Cytotoxicity against human MCF7 cells assessed as inhibition of cell growth incubated for 72 hrs by sulforhodamine B assay; type: functional, cell-based; settings: MCF7, 72 h
[9] = tested on: HT-29; test: Cytotoxicity against human HT-29 cells assessed as inhibition of cell growth incubated for 72 hrs by sulforhodamine B assay; type: functional, cell-based; settings: HT-29, 72 h
[10] = tested on: TK-10; test: Cytotoxicity against human TK-10 cells by sulforhodamine B staining based spectrophotometric analysis; type: functional, cell-based
[11] = tested on: PC-3; test: Cytotoxicity against human PC-3 cells by sulforhodamine B staining based spectrophotometric analysis; type: functional, cell-based
[12] = tested on: HepG2; test: Cytotoxicity against human HepG2 cells by sulforhodamine B staining based spectrophotometric analysis; type: functional, cell-based
[13] = tested on: HeLa; test: Cytotoxicity against human HeLa cells by sulforhodamine B staining based spectrophotometric analysis; type: functional, cell-based
[14] = tested on: MCF7; test: Cytotoxicity against human MCF7 cells by sulforhodamine B staining based spectrophotometric analysis; type: functional, cell-based
[15] = tested on: UACC-62; test: Cytotoxicity against human UACC-62 cells by sulforhodamine B staining based spectrophotometric analysis; type: functional, cell-based
[16] = tested on: SK-OV-3; test: Cytotoxicity against human SK-OV-3 cells assessed as reduction in cell growth incubated for 24 hrs by DAPI staining based fluorescence imaging analysis; type: functional; settings: SK-OV-3, 24 h
[17] = tested on: OVCAR-5; test: Cytotoxicity against human OVCAR-5 cells assessed as reduction in cell growth incubated for 24 hrs by DAPI staining based fluorescence imaging analysis; type: functional; settings: OVCAR-5, 24 h
[18] = tested on: Bel-7402; test: Antiproliferative activity against human Bel-7402 cells assessed as inhibition of cell growth incubated for 72 hrs by MTT reagent based microplate reader assay; type: functional; settings: Bel-7402, 72 h
[19] = tested on: HCT-15; test: Antiproliferative activity against human HCT-15 cells assessed as inhibition of cell growth incubated for 72 hrs by MTT reagent based microplate reader assay; type: functional; settings: HCT-15, 72 h
[20] = tested on: MCF7; test: Antiproliferative activity against human MCF7 cells assessed as inhibition of cell growth incubated for 72 hrs by MTT reagent based microplate reader assay; type: functional; settings: MCF7, 72 h
[21] = tested on: MGC-803; test: Antiproliferative activity against human MGC-803 cells assessed as inhibition of cell growth incubated for 72 hrs by MTT reagent based microplate reader assay; type: functional; settings: MGC-803, 72 h
[22] = tested on: PC-3; test: Cytotoxicity against human PC-3 cells assessed as reduction in cell viability incubated for 48 hrs by MTT assay; type: functional, cell-based; settings: PC-3, 48 h
[23] = tested on: DU-145; test: Cytotoxicity against human DU-145 cells assessed as reduction in cell viability incubated for 48 hrs by MTT assay; type: functional, cell-based; settings: DU-145, 48 h
[24] = tested on: HeLa; test: Cytotoxicity against human HeLa cells assessed as reduction in cell viability incubated for 48 hrs by MTT assay; type: functional, cell-based
[25] = tested on: HCT-15; test: Cytotoxicity against human HCT-15 cells assessed as reduction in cell viability incubated for 48 hrs by MTT assay; type: functional, cell-based; settings: HCT-15, 48 h
[26] = tested on: MCF7; test: Cytotoxicity against human MCF7 cells assessed as reduction in cell viability incubated for 48 hrs by MTT assay; type: functional, cell-based; settings: MCF7, 48 h
[27] = tested on: HeLa; test: Cytotoxicity against human HeLa cells incubated for 24 hrs by MTT reagent based microplate reader analysis; type: functional, cell-based
[28] = Cytotoxicity against mouse JB6 Cl 41-5a cells incubated for 24 hrs by MTT reagent based microplate reader analysis; type: toxicity, cell-based
[29] = tested on: N2a; test: Cytotoxicity against mouse Neuro2a cells incubated for 24 hrs by MTT reagent based microplate reader analysis; type: functional, cell-based
[30] = tested on: HCT-15; test: Cytotoxicity against human HCT-15 cells assessed as reduction in cell viability incubated for 72 hrs by MTT reagent based microplate reader assay; type: functional; settings: HCT-15, 72 h
[31] = tested on: K562; test: Cytotoxicity against human K562 cells assessed as reduction in cell viability incubated for 72 hrs by MTT reagent based microplate reader assay; type: functional; settings: K562, 72 h
[32] = tested on: HCT-116; test: Cytotoxicity against human HCT-116 cells assessed as reduction in cell viability incubated for 72 hrs by MTT reagent based microplate reader assay; type: functional; settings: HCT-116, 72 h
[33] = tested on: A498; test: Antiproliferative activity against human A498 cells assessed as reduction in cell growth incubated for 24 hrs by MTT assay; type: functional, cell-based; settings: A498, 24 h
[34] = tested on: Glioblastoma cell line; test: Antiproliferative activity against human Glioblastoma cell line assessed as reduction in cell growth incubated for 24 hrs by MTT assay; type: functional, cell-based
[35] = tested on: A549; test: Antiproliferative activity against human A549 cells assessed as reduction in cell growth incubated for 24 hrs by MTT assay; type: functional, cell-based; settings: A549, 24 h
[36] = tested on: HeLa; test: Antiproliferative activity against human HeLa cells assessed as reduction in cell growth incubated for 24 hrs by MTT assay; type: functional, cell-based
[37] = Antiproliferative activity against human SK-RC-45 cells assessed as reduction in cell growth incubated for 24 hrs by MTT assay; type: functional, cell-based; settings: SK-RC-45, 24 h
[38] = tested on: MCF7; test: Antiproliferative activity against human MCF7 cells assessed as reduction in cell growth incubated for 48 hrs by MTT reagent based microplate reader assay; type: functional; settings: MCF7, 48 h
[39] = tested on: A549; test: Antiproliferative activity against human A549 cells assessed as reduction in cell growth incubated for 48 hrs by MTT reagent based microplate reader assay; type: functional; settings: A549, 48 h
[40] = tested on: SK-OV-3; test: Antiproliferative activity against human SK-OV-3 cells assessed as reduction in cell growth incubated for 48 hrs by MTT reagent based microplate reader assay; type: functional; settings: SK-OV-3, 48 h
[41] = tested on: HepG2; test: Antiproliferative activity against human HepG2 cells assessed as reduction in cell growth incubated for 48 hrs by MTT reagent based microplate reader assay; type: functional; settings: HepG2, 48 h
[42] = tested on: LNCaP; test: Antiproliferative activity against human LNCaP cells assessed as reduction in cell growth incubated for 48 hrs by MTT reagent based microplate reader assay; type: functional

Compound: CC1(C)O[C@H]2[C@@H](O1)[C@@H](Cn1nnc3c1C(=O)c1cccc(O)c1C3=O)O[C@@H]1OC(C)(C)O[C@@H]12
IC50 [1]: 520 nM
IC50 [2]: 990 nM
IC50 [3]: 290 nM

IC50 [4]: 7.02 µM
IC50 [5]: 6.01 µM
IC50 [6]: 7.2 µM
Compound: CC1=C(CCNC(=O)c2ccccc2)C(=O)c2c(O)cccc2C1=O

Compound: CN(C)N1C=C2C[C@@H](O[Si](C)(C)C(C)(C)C)[C@@H]3OC(C)(C)O[C@@H]3[C@H]2C2=C1C(=O)c1c(O)cccc1C2=O
IC50 [7]: 700 nM
IC50 [8]: 16 µM
IC50 [9]: 200 nM

Compound: O=C1C(CSc2ccc(F)cc2)=C(C2=C(CSc3ccc(F)cc3)C(=O)c3ccccc3C2=O)C(=O)c2ccccc21
IC50 [10]: 3.77 µM
IC50 [11]: 6.98 µM
IC50 [12]: 8.75 µM
IC50 [13]: 31.5 µM
IC50 [14]: 3.24 µM
IC50 [15]: 2980 nM

Compound: COc1cc(/C=C/C(=O)/C=C(O)/C=C/c2ccc(OC3=CC(=O)c4ccccc4C3=O)c(OC)c2)ccc1OC1=CC(=O)c2ccccc2C1=O
IC50 [16]: 5.35 µM
IC50 [17]: 4.05 µM

IC50 [18]: 4.21 µM
IC50 [19]: 1640 nM
IC50 [20]: 6.94 µM
IC50 [21]: 3.28 µM
Compound: CCCCCCCC(Oc1cc(OC)c(OC)c(OC)c1)c1ccc2c(c1)/C(=N\O)C=C/C2=N\O (configuration not stated)

Compound: CO/N=C1\C(c2cc3c(cc2OC)OCO3)=CC(=O)c2cc3c(cc21)OCO3
IC50 [22]: 319 nM
IC50 [23]: 23 nM
IC50 [24]: 104 nM
IC50 [25]: 55 nM
IC50 [26]: 196 nM

Compound: O=C1C2=C(O[C@@H]3[C@@H](O)[C@@H](O)CO[C@H]3S2)C(=O)c2c(O)cccc21
IC50 [27]: 400 nM
IC50 at 24 h [28]: 700 nM
IC50 [29]: 1400 nM

Compound: COc1cc(C(CCC(C)C)OC)c(OC)c2c1/C(=N/O)C=C/C2=N/O (configuration not stated)
IC50 [30]: 1630 nM
IC50 [31]: 1250 nM
IC50 [32]: 2470 nM

IC50 [34]: 17.2 µM
IC50 [35]: 29.6 µM
IC50 [36]: 34.3 µM
Compound: O=C1C(O)=C(C(C2=C(O)C(=O)c3ccccc3C2=O)c2ccc(C(F)(F)F)cc2)C(=O)c2ccccc21
IC50 [33]: 27.5 µM
IC50 [37]: 30.3 µM

IC50 [38]: 4.91 µM
IC50 [39]: 6.11 µM
IC50 [40]: 12.2 µM
IC50 [41]: 7.13 µM
IC50 [42]: 3.62 µM
Compound: CC1=C(C2CC(=O)N(C)C2=O)C(=O)c2c(O)cccc2C1=O (configuration not stated)

Source: ChEMBL document CHEMBL5512632, “Unlocking the potential of 1,4-naphthoquinones: A comprehensive review of their anticancer properties” (Eur J Med Chem, 2024)
